Results from patent publication US7820834B2, “Triptolide 5,6-derivatives as immunomodulators and anticancer agents” (Pharmagenesis, Inc., priority 2004, dated 2010).

Assays:
Assay type in all cases: cell-based
[1] = tested on: IL-2 production in Jurkat cells; test: IL-2 Inhibition Assay; conditions: without previous incubation in human serum, FIG. 4
Experimental: Test compounds were diluted to 1 mM in complete tissue culture medium. Aliquots were placed in microculture plates coated with anti-CD3 antibody (used to stimulate the production of IL-2 by Jurkat cells), and serial dilutions were prepared so that the final concentration would encompass the range of 0.001 to 10,000 nM in log increments.
Invention compound 14-acetyl-5,6-didehydrotriptolide (designated PG746) was tested with and without a previous 16-hr incubation in human serum. Such incubation is expected to substantially convert the 14-acetyl group of PG746 to a 14-hydroxy group.
Cells from an exponentially expanding culture of Jurkat human T cell line (#TIB-152 obtained from American Type Culture Collection, Manassas, Va.) were harvested, washed once by centrifugation, re-suspended in complete tissue culture medium, and diluted to a concentration of 10^7 cells/ml. A volume of 50 μl of Jurkat cells was added to wells containing 100 μl of the diluted compounds, and the cells were stimulated with 50 ng/ml PMA and […] PHA. The plates were incubated at 37° C. in a 5% CO2 incubator. […] The stored supernatants were analyzed for human IL-2 concentration using the Luminex 100 (Luminex Corporation, Austin, Tex.), Luminex microspheres coupled with anti-IL-2 capture antibody, and fluorochrome-coupled anti-IL-2 detection antibody. The data were expressed as pg/ml of IL-2. […]

[2] = tested on: human T cell lymphoma (Jurkat) cells; test: Cytotoxicity (MTT) Assay; conditions: FIG. 2
Experimental: Test compounds were dissolved in DMSO at a concentration of 20 mM. Further dilutions were done in RPMI1640 medium (GIBCO, Rockville, Md.) supplemented with 10% Fetal Calf Serum (HyClone Laboratories, Logan, Utah). Invention compound 14-acetyl-5,6-didehydrotriptolide (designated PG746) was tested with and without a previous 16-hr incubation in human serum. Such incubation is expected to substantially convert the 14-acetyl group of PG746 to a 14-hydroxy group.
Cytotoxicity of the compounds was determined in a standard MTT assay using Cell Proliferation Kit I (#1 465 007, Roche Diagnostics, Mannheim, Germany). Accordingly, human T cell lymphoma (Jurkat) cells (4×10^5 per well) were cultured for 24 h, in 96-well tissue culture plates, in the presence of serial three-fold dilutions of test compounds or medium containing the same concentration of DMSO as in the test samples at each dilution point. The cultures were then supplemented with 10 μl/well MTT reagent for 4 h and then with 0.1 ml/well solubilizing reagent for an additional 16 h. Optical density at 570 nm was measured on a ThermoScan microplate reader (Molecular Devices, Menlo Park, Calif.).
The data is presented as OD570 values versus concentration of the compounds. The results for invention compound 14-acetyl-5,6-didehydrotriptolide (designated PG746) and triptolide (designated PG490) are given in FIG. 2.

[3] = tested on: Jurkat human T lymphoma cell line; test: Annexin V Apoptosis Assay; conditions: 24 h, dose-dependent, FIG. 1
Experimental: Test samples were diluted to 1 mM in complete tissue culture medium (RPMI 1640 medium plus 5% heat-inactivated fetal calf serum, 1% HEPES, 1% pen/strep, 1% glutamine). Aliquots were placed in microculture plates and serial dilutions were prepared so that the final concentration would encompass the range of 2 to 6,000 nM with half-log increments. Cells from an exponentially expanding culture of the Jurkat human T lymphoma cell line (#TIB-152 obtained from American Type Culture Collection, Manassas, Va.) were harvested, washed once by centrifugation, re-suspended in complete tissue culture medium, and further diluted to a concentration of 1×10^6 cells/ml. A volume of 100 μl of the cells (1×10^5 cells) was added to wells containing 100 μl of the diluted compounds, and the plates were incubated at 37° C. in a 5% CO2 incubator.
After 24 hours, the plates were centrifuged to pellet the cells, and the cells were washed twice with 2% heat-inactivated fetal calf serum in PBS. […] The contents of the wells were individually transferred into test tubes, and apoptosis was analyzed using a FACSCalibur flow cytometer (BD Immunocytometry Systems, San Jose, Calif.). Cells positive for Annexin V binding were considered to be apoptotic, and the data were calculated as percent apoptotic cells. […]

| Structure (SMILES) | inhibition of IL-2 production, activity relative to the medium control [1] | concentrations at which the compound was clearly cytotoxic to Jurkat cells (MTT) ([2]; after incubation for 16 hours with human serum) [µM] | cytotoxicity (MTT), activity relative to the medium control ([2]; in assay medium, without previous incubation in human serum) | induction of apoptosis (Annexin V positive cells) [3] |
| --- | --- | --- | --- | --- |
| CC(=O)O[C@@H]1[C@@]2(C(C)C)O[C@H]2[C@@H]2O[C@]23[C@]12O[C@H]2C=C1C2=C(CC[C@@]13C)C(=O)OC2 [PG746, 14-acetyl-5,6-didehydrotriptolide] | no significant activity relative to the medium control | ≥ 1 | no significant activity relative to the medium control | – |
| CC(C)[C@]12O[C@H]1[C@@H]1O[C@]13[C@]1(O[C@H]1C[C@@]1(O)C4=C(CC[C@]31C)C(=O)OC4)[C@@H]2O [PG701, 5-α-hydroxytriptolide] | – | – | – | induced apoptosis in Jurkat cells |
